≈ marks a conversion by molar mass, not a printed value.

The conditions of this data set: buffer; pH 7.4; 200.0 µM.
Compound `Cc1ccc(C)c(-n2c3nc(=O)n(C)c(=O)c-3cc3ccccc32)c1` returned a kinetic solubility greater than 49.7 µg/mL.

In turn, `O=C(COc1ccc(Cl)c2cccnc12)N1CCOCC1` displayed a solubility (kinetic) of 42.5 µg/mL (≈ 139 µM).

`Nc1cc(=O)[nH]c(SCc2ccccc2Cl)n1` showed a solubility (kinetic) of 6.9 µg/mL (≈ 25.8 µM).

For the compound `Cc1ccc2cc(/C=C/C(=O)c3ccco3)c(Cl)nc2c1`, the solubility (kinetic) was determined as 3.2 µg/mL (≈ 10.7 µM).

Compound `COc1cc(NC(=O)CCN2CCN(CCO)CC2)cc(OC)c1` displayed a solubility (kinetic) of 44.5 µg/mL (≈ 132 µM).

As for `Cc1cc(/C=C/C(=O)O)c(C)n1-c1ccc(Cl)cc1`, the solubility (kinetic) is greater than 41.4 µg/mL.

Consider `CN(CC(=O)OCC(=O)NC1CCCC1)S(=O)(=O)c1ccc(Cl)cc1`, for which the kinetic solubility is greater than 58.3 µg/mL.

`O=C(/C=C/c1ccc([N+](=O)[O-])cc1)NCCOc1ccc(F)cc1` gave a solubility (kinetic) of 4 µg/mL (≈ 12.1 µM).

With `CC(C)CC(NC(=O)C1CCC(C)CC1)C(=O)NCc1ccco1` (stereo not drawn), the solubility (kinetic) was found to be 25.2 µg/mL (≈ 75.3 µM).

`Clc1ccc(CN2CCSCC2)c(Cl)c1`: the solubility (kinetic) turned out to be 0.9 µg/mL (≈ 3.43 µM).

The compound `CCN(CC(=O)NCc1ccncc1)S(=O)(=O)c1ccccc1` registered a kinetic solubility greater than 50 µg/mL.

Regarding `COc1ccc(CNc2ncccc2[N+](=O)[O-])cc1`, the kinetic solubility came out at 17 µg/mL (≈ 65.6 µM).

`CC(=O)Nc1ccccc1OCC(=O)NC1CCCCC1C` (stereo not drawn) showed a kinetic solubility greater than 45.7 µg/mL.

The compound `O=[N+]([O-])c1ccccc1S(=O)(=O)N1CCSCC1` returned a solubility (kinetic) of 34.2 µg/mL (≈ 119 µM).

In turn, `CSCCC(NC(=O)c1ccccc1)C(=O)OCC(=O)NCc1ccco1` (stereo not drawn) returned a kinetic solubility greater than 58.6 µg/mL.

In turn, `O=C(O)CN1C(=O)C(=O)N(Cc2ccc(Cl)cc2Cl)C1=O` showed a solubility (kinetic) greater than 49.7 µg/mL.

Consider `COC(=O)c1sccc1NC(=O)Nc1ccc(OC)cc1OC`, for which the solubility (kinetic) worked out at 15.4 µg/mL (≈ 45.8 µM).

As for `CCCC(=O)N1CCC(Cc2ccccc2)CC1`, the kinetic solubility is greater than 36.8 µg/mL.

For the compound `Cc1nc(N2CCOCC2)sc1C=O`, the solubility (kinetic) was greater than 31.8 µg/mL.

As for `Nc1cccc(C(=O)Nc2cccc3ncccc23)c1`, the kinetic solubility was greater than 39.5 µg/mL.

`O=C1CCCN1CCCNS(=O)(=O)c1cccs1`: the solubility (kinetic) was greater than 43.3 µg/mL.

`Cc1cc(C)cc(NC(=O)C2CCCN(c3ncccn3)C2)c1` (stereo not drawn): the solubility (kinetic) came to 0.5 µg/mL (≈ 1.61 µM).

`Cc1ccc(-c2nc3ccccc3c(=O)n2-c2cccc(C)n2)cc1` yielded a kinetic solubility greater than 49.1 µg/mL.

In turn, `CN(C(=O)CO/N=C/c1ccc(Cl)cc1)c1ccccc1` returned a kinetic solubility of 44.6 µg/mL (≈ 147 µM).

`O=[N+]([O-])c1cc(C(F)(F)F)ccc1NC1CCN(Cc2ccccc2)CC1` displayed a solubility (kinetic) of 2.6 µg/mL (≈ 6.85 µM).

Regarding `Cc1cc(Sc2ncnc(N)c2[N+](=O)[O-])ncn1`, the kinetic solubility is greater than 39.6 µg/mL.

`COc1ccc2nc(C)cc(N3CCN(c4ccccc4)CC3)c2c1`: the solubility (kinetic) came out at 2.7 µg/mL (≈ 8.1 µM).

`CC(C)NC(=S)NCc1cccs1` returned a kinetic solubility greater than 32.2 µg/mL.

Take `CCC(Oc1ccccc1)C(=O)Nc1ccccc1N1CCCCC1` (stereo not drawn): the kinetic solubility was found to be 0.7 µg/mL (≈ 2.07 µM).

As to `COc1ccc(CNC(=O)c2cc(=O)c3cc(C)c(C)cc3o2)cc1`, the kinetic solubility was less than 0.7 µg/mL.

In turn, `CC12CN3CC(C)(CN(C1)C3c1ccc(F)cc1)C2` (stereo not drawn) yielded a kinetic solubility of 26.2 µg/mL (≈ 101 µM).

In turn, `COc1ccc(C(=O)OCC(=O)Nc2c(C)cccc2C)cc1` came in with a solubility (kinetic) of less than 0.7 µg/mL.

With `O=C(COC(=O)Cc1cccc(C(F)(F)F)c1)NC(=O)NC1CCCC1`, the kinetic solubility is 32.1 µg/mL (≈ 86.2 µM).

`Cc1noc(C)c1C(=O)N1CCC(C(=O)c2ccccc2)CC1` had a kinetic solubility of 41.8 µg/mL (≈ 134 µM).

For the compound `O=C(COC(=O)c1cc[n+]([O-])cc1)NCc1ccccc1Cl`, the solubility (kinetic) was greater than 48.1 µg/mL.

On to `NC1=Nc2cccc3cccc1c23`, for which the kinetic solubility is 23.2 µg/mL (≈ 138 µM).

`COC(=O)C(CC(C)C)NC(=O)c1cccs1` (stereo not drawn) showed a kinetic solubility greater than 38.3 µg/mL.

As to `Cc1ccc2oc(=O)n(CCCOc3ccccc3C)c2c1`, the kinetic solubility was found to be 0.9 µg/mL (≈ 3.03 µM).

With `Cc1cc(C)c2c(CN3CC(C)OC(C)C3)cc(=O)oc2c1C` (stereo not drawn), the solubility (kinetic) worked out at 13.6 µg/mL (≈ 43.1 µM).

Take `CNc1cc(C)nc(N2CCOCC2)n1`: the kinetic solubility was greater than 31.2 µg/mL.

As to `Cc1nn(CC(=O)N2CCN(C(=O)c3ccco3)CC2)c(C)c1[N+](=O)[O-]`, the kinetic solubility was greater than 54.2 µg/mL.

Compound `Cc1ccc(C2=NOC(=O)/C2=C\c2ccccc2)cc1` registered a solubility (kinetic) of 33.7 µg/mL (≈ 128 µM).

Regarding `O=C1NC(=S)N/C1=C/c1cccc2ccccc12`, the kinetic solubility worked out at 1.7 µg/mL (≈ 6.68 µM).

On to `O=C(Nc1ccccc1C(F)(F)F)c1ccccc1Br`, for which the kinetic solubility was determined as 39.8 µg/mL (≈ 116 µM).

The compound `O=C(O)CNS(=O)(=O)c1ccc2[nH]c(=O)c(=O)[nH]c2c1` came in with a solubility (kinetic) greater than 44.9 µg/mL.

Regarding `Oc1ccc(Br)cc1C1Nc2ccccc2S1` (stereo not drawn), the kinetic solubility is less than 0.7 µg/mL.

For the compound `COc1ccc(NS(=O)(=O)c2cn(C)c(=O)n(C)c2=O)c(OC)c1`, the solubility (kinetic) is greater than 53.3 µg/mL.

The compound `CCCC(=O)Nc1cc(C(F)(F)F)ccc1N1CCOCC1` gave a kinetic solubility of 44.6 µg/mL (≈ 141 µM).

For the compound `CC[C@@H](Nc1ncnc2c1oc1ccccc12)C(=O)O`, the solubility (kinetic) amounted to 29.9 µg/mL (≈ 110 µM).

As to `NC(=O)c1ccccc1NC(=O)COC(=O)CSCc1cccc(Cl)c1`, the kinetic solubility stood at 10.8 µg/mL (≈ 27.5 µM).

Compound `COc1ccc(NC(=S)NCc2ccc(Cl)cc2)c(OC)c1` yielded a kinetic solubility of 28.3 µg/mL (≈ 84 µM).

Consider `O=C(c1ccccc1)N1CCCC(C(=O)N2CCN(c3ccccc3)CC2)C1` (stereo not drawn), for which the solubility (kinetic) worked out at 46.8 µg/mL (≈ 124 µM).

Turning to `CC(C)(C)C(=O)C1=C(O)C(=O)N(Cc2ccccc2)C1c1ccccc1Cl` (stereo not drawn), the kinetic solubility is greater than 57.6 µg/mL.

One may read the solubility (kinetic) as the concentration staying in solution when a stock, usually in DMSO, is diluted into the medium.

The record behind these values is PubChem BioAssay AID1996.
